Reference: ChEMBL document CHEMBL4270599, “Synthesis of a 3'-C-ethynyl-β-d-ribofuranose purine nucleoside library: Discovery of C7-deazapurine analogs as potent antiproliferative nucleosides” (Eur J Med Chem, 2018)

Columns and labels:
Type in all cases: functional
[1] = system: NCI/ADR-RES; assay: Cytotoxicity against human NCI-ADR-RES cells after 48 hrs by SRB assay; conditions: for GI50: read-out: GI50; for CC50: read-out: pLC50 (the source's name) (converted)
[2] = system: HL-60(TB); assay: Growth inhibition of human HL-60(TB) cells assessed as cell growth at 10^-7 M incubated for 48 hrs by sulforhodamine B assay relative to control; conditions: HL-60, 48 h, read-out: Activity
[3] = system: NCI-H522; assay: Cytotoxicity against human NCI-H522 cells after 48 hrs by SRB assay; conditions: NCI-H522, 48 h; for GI50: read-out: GI50; for TGI: read-out: TGI; for CC50: read-out: pLC50 (the source's name) (converted)
[4] = system: SK-MEL-28; assay: Growth inhibition of human SK-MEL-28 cells assessed as cell growth at 10^-5 M incubated for 48 hrs by sulforhodamine B assay relative to control; conditions: SK-MEL-28, 48 h, read-out: Activity
[5] = system: SF-539; assay: Growth inhibition of human SF539 cells assessed as cell growth at 10^-7 M incubated for 48 hrs by sulforhodamine B assay relative to control; conditions: SF-539, 48 h, read-out: Activity
[6] = system: HCT-15; assay: Growth inhibition of human HCT15 cells assessed as cell growth at 10^-4 M incubated for 48 hrs by sulforhodamine B assay relative to control; conditions: HCT-15, 48 h, read-out: Activity
[7] = system: SR; assay: Growth inhibition of human SR cells assessed as cell growth at 10^-5 M incubated for 48 hrs by sulforhodamine B assay relative to control; conditions: read-out: Activity
[8] = system: UACC-62; assay: Growth inhibition of human UACC62 cells assessed as cell growth at 10^-7 M incubated for 48 hrs by sulforhodamine B assay relative to control; conditions: UACC-62, 48 h, read-out: Activity
[9] = system: UACC-257; assay: Growth inhibition of human UACC257 cells assessed as cell growth at 10^-7 M incubated for 48 hrs by sulforhodamine B assay relative to control; conditions: UACC-257, 48 h, read-out: Activity
[10] = system: U-251; assay: Growth inhibition of human U251 cells assessed as cell growth at 10^-8 M incubated for 48 hrs by sulforhodamine B assay relative to control; conditions: U-251, 48 h, read-out: Activity
[11] = system: SF-268; assay: Growth inhibition of human SF268 cells assessed as cell growth at 10^-7 M incubated for 48 hrs by sulforhodamine B assay relative to control; conditions: SF-268, 48 h, read-out: Activity
[12] = system: MDA-MB-468; assay: Growth inhibition of human MDA-MB-468 cells assessed as cell growth at 10^-7 M incubated for 48 hrs by sulforhodamine B assay relative to control; conditions: MDA-MB-468, 48 h, read-out: Activity
[13] = system: SF-268; assay: Growth inhibition of human SF268 cells assessed as cell growth at 10^-6 M incubated for 48 hrs by sulforhodamine B assay relative to control; conditions: SF-268, 48 h, read-out: Activity
[14] = system: OVCAR-5; assay: Growth inhibition of human OVCAR5 cells assessed as cell growth at 10^-6 M incubated for 48 hrs by sulforhodamine B assay relative to control; conditions: OVCAR-5, 48 h, read-out: Activity
[15] = system: U-251; assay: Cytotoxicity against human U251 cells after 48 hrs by SRB assay; conditions: U-251, 48 h; for CC50: read-out: LC50 (the source's name)
[16] = system: K562; assay: Cytotoxicity against human K562 cells after 48 hrs by SRB assay; conditions: K562, 48 h; for GI50: read-out: GI50
[17] = system: 786-0; assay: Cytotoxicity against human 786-0 cells after 48 hrs by SRB assay; conditions: 786-0, 48 h; for GI50: read-out: GI50; for TGI: read-out: TGI
[18] = system: MCF7; assay: Growth inhibition of human MCF7 cells assessed as cell growth at 10^-6 M incubated for 48 hrs by sulforhodamine B assay relative to control; conditions: MCF7, 48 h, read-out: Activity
[19] = system: SNB-19; assay: Growth inhibition of human SNB19 cells assessed as cell growth at 10^-7 M incubated for 48 hrs by sulforhodamine B assay relative to control; conditions: SNB-19, 48 h, read-out: Activity
[20] = system: OVCAR-4; assay: Cytotoxicity against human OVCAR4 cells after 48 hrs by SRB assay; conditions: OVCAR-4, 48 h; for GI50: read-out: GI50; for CC50: read-out: LC50 (the source's name)
[21] = system: SF-268; assay: Cytotoxicity against human SF268 cells after 48 hrs by SRB assay; conditions: SF-268, 48 h; for GI50: read-out: GI50; for TGI: read-out: TGI
[22] = system: ACHN; assay: Growth inhibition of human ACHN cells assessed as cell growth at 10^-5 M incubated for 48 hrs by sulforhodamine B assay relative to control; conditions: read-out: Activity
[23] = system: SN12C; assay: Growth inhibition of human SN12C cells assessed as cell growth at 10^-4 M incubated for 48 hrs by sulforhodamine B assay relative to control; conditions: read-out: Activity
[24] = system: KM12; assay: Growth inhibition of human KM12 cells assessed as cell growth at 10^-4 M incubated for 48 hrs by sulforhodamine B assay relative to control; conditions: KM12, 48 h, read-out: Activity
[25] = system: HCC 2998; assay: Cytotoxicity against human HCC2998 cells after 48 hrs by SRB assay; conditions: HCC 2998, 48 h; for GI50: read-out: GI50; for TGI: read-out: TGI
[26] = system: IGROV-1; assay: Growth inhibition of human IGROV1 cells assessed as cell growth at 10^-7 M incubated for 48 hrs by sulforhodamine B assay relative to control; conditions: IGROV-1, 48 h, read-out: Activity
[27] = system: NCI-H226; assay: Growth inhibition of human NCI-H226 cells assessed as cell growth at 10^-6 M incubated for 48 hrs by sulforhodamine B assay relative to control; conditions: NCI-H226, 48 h, read-out: Activity
[28] = system: DU-145; assay: Growth inhibition of human DU145 cells assessed as cell growth at 10^-4 M incubated for 48 hrs by sulforhodamine B assay relative to control; conditions: DU-145, 48 h, read-out: Activity
[29] = system: TK-10; assay: Growth inhibition of human TK10 cells assessed as cell growth at 10^-5 M incubated for 48 hrs by sulforhodamine B assay relative to control; conditions: TK-10, 48 h, read-out: Activity
[30] = read-out: pLC50 (the source's name) (converted)
[31] = read-out: LC50 (the source's name)

## C#C[C@@]1(O)[C@@H](CO)O[C@@H](n2cc(Cl)c3c(N)ncnc32)[C@@H]1O
[1]
  GI50: 0.0506 to 0.0546 µM
  CC50: > 100 µM
[1]; read-out: TGI
  TGI: 0.777 µM
[1]; read-out: pTGI (converted)
  TGI: 0.776 µM
[2]
  growth at 0.1 µM: 19 to 47%
[3]
  GI50: 0.0816 to 0.134 µM
  TGI: 0.276 to 0.455 µM
  CC50: > 100 µM
[4]
  growth at 10 µM: 44 to 45%
[5]
  growth at 0.1 µM: 90 to 98%
[6]
  growth at 100 µM: 1%
[7]
  growth at 10 µM: 1 to 5%
[8]
  growth at 0.1 µM: 75 to 81%
[9]
  growth at 0.1 µM: 79 to 90%
[10]
  growth at 0.01 µM: 47 to 66%
[11]
  growth at 0.1 µM: 77 to 80%
[12]
  growth at 0.1 µM: 82 to 89%
[13]
  growth at 1 µM: 23 to 24%
[14]
  growth at 1 µM: 23 to 38%
[15]
  CC50: > 100 µM
[16]
  GI50: 0.0781 to 0.126 µM
[16]; read-out: TGI
  TGI: > 100 µM
[16]; [30]
  CC50: > 100 µM
[16]; read-out: pTGI
  TGI: > 100 µM
[17]
  GI50: 0.308 to 0.336 µM
  TGI: 1.31 to 1.34 µM
[17]; read-out: LC50
  LC50 (lethal concentration, 50% cell kill): 5.21 to 5.7 µM
[18]
  growth at 1 µM: 1 to 4%
[19]
  growth at 0.1 µM: 12 to 70%
[20]
  GI50: 0.292 to 0.358 µM
  CC50: > 100 µM
[20]; read-out: TGI
  TGI: 1.98 to 5.62 µM
[21]
  GI50: 0.328 to 0.338 µM
  TGI: 14.4 to 31.1 µM
[21]; [30]
  CC50: > 100 µM
[22]
  growth at 10 µM: -30%
[23]
  growth at 100 µM: 1%
[24]
  growth at 100 µM: 2 to 6%
[25]
  GI50: 0.182 to 0.191 µM
  TGI: 0.501 to 0.565 µM
[25]; [31]
  CC50: > 100 µM
[26]
  growth at 0.1 µM: 57 to 65%

## C#C[C@@]1(O)[C@@H](CO)O[C@@H](n2cc(Br)c3c(N)ncnc32)[C@@H]1O
[1]
  GI50: 0.0451 to 0.0659 µM
  CC50: > 100 µM
[1]; read-out: TGI
  TGI: 1.02 µM
[1]; read-out: pTGI (converted)
  TGI: 1.02 µM
[3]
  GI50: 0.0613 to 0.156 µM
  TGI: 0.332 to 0.593 µM
  CC50: > 100 µM
[4]
  growth at 10 µM: 38 to 40%
[5]
  growth at 0.1 µM: 79 to 91%
[6]
  growth at 100 µM: 1 to 4%
[7]
  growth at 10 µM: 1 to 5%
[8]
  growth at 0.1 µM: 56 to 84%
[9]
  growth at 0.1 µM: 70 to 93%
[10]
  growth at 0.01 µM: 57 to 87%
[11]
  growth at 0.1 µM: 78 to 87%
[12]
  growth at 0.1 µM: 56 to 87%
[13]
  growth at 1 µM: 34 to 36%
[14]
  growth at 1 µM: 33 to 56%
[27]
  growth at 1 µM: 27 to 66%
[15]; read-out: GI50
  GI50: 0.0132 to 0.0309 µM
[15]
  CC50: > 100 µM
[28]
  growth at 100 µM: 8 to 10%
[16]
  GI50: 0.0411 to 0.09 µM
[16]; [31]
  CC50: > 100 µM
[16]; read-out: TGI
  TGI: > 100 µM
[16]; read-out: pTGI
  TGI: > 100 µM
[17]
  GI50: 0.164 to 0.351 µM
  TGI: 0.593 to 1.63 µM
[18]
  growth at 1 µM: 3 to 5%
[19]
  growth at 0.1 µM: 6 to 71%
[20]
  GI50: 0.296 to 0.452 µM
  CC50: > 100 µM
[20]; read-out: TGI
  TGI: > 100 µM
[20]; read-out: pTGI (converted)
  TGI: > 100 µM
[21]
  GI50: 0.467 to 0.498 µM
  TGI: 33.2 to 80.6 µM
[21]; [31]
  CC50: > 100 µM
[22]
  growth at 10 µM: -7%
[23]
  growth at 100 µM: 1 to 5%
[24]
  growth at 100 µM: 2 to 10%
[25]
  GI50: 0.169 to 0.24 µM
  TGI: 0.525 to 1.25 µM
[25]; [30]
  CC50: > 100 µM
[29]
  growth at 10 µM: 12%
[26]
  growth at 0.1 µM: 11 to 43%
